Laboratory results from ChEMBL document CHEMBL1201862, “PubChem BioAssay data set” (2004).
Activity calls are given as the source filed them.

Legend:
[1] = test system: BJ; experiment: cells; assay type: functional, cell-based; details: Homo sapiens
[2] = biological target: Heat shock protein HSP 90-alpha (Homo sapiens, UniProt P07900); assay type: functional, organism-based
[3] = cytotoxicity toward DRD oncogenic fibroblasts, dose response, cell-based, non-viral oncogenic, luminescence (AID 1934); assay type: functional; details: Homo sapiens
[4] = test system: BJ; experiment: cytotoxicity toward BJ-TERT-LT-ST fibroblasts, dose response, cell-based, RAS-independent, luminescence (AID 1935); assay type: functional; details: Homo sapiens;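 further: BJ fibroblasts immortalized with TERT plus LT and ST oncogenes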
[5] = test system: BJ; experiment: cytotoxicity toward Ras-transformed BJeLR fibroblasts, dose response, cell-based, alamar blue fluorescence, cherrypicked samples (AID 2631); assay type: functional; details: Homo sapiens;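 further: confirmatory dose-response assay in RAS-dependent BJ fibroblasts engineered with TERT, LT and ST, with cytotoxicity read by fluorescence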
[6] = test system: BJ; experiment: cytotoxicity toward BJ-TERT fibroblasts, dose response, cell-based, RAS-independent, luminescence (AID 1933); assay type: functional; details: Homo sapiens
[7] = biological target: SWI/SNF-related matrix-associated actin-dependent regulator of chromatin subfamily A member 2 (Homo sapiens, UniProt P51531); experiment: Luminescence-based cell-based high throughput dose response assay to identify activators of the function of SWI/SNF related, matrix associated, actin dependent regulator of chromatin, subfamily a, member 2 (SMARCA2, BRM).; assay type: functional
Chain of SWI/SNF-related matrix-associated actin-dependent regulator of chromatin subfamily A member 2 (P51531 whole entry): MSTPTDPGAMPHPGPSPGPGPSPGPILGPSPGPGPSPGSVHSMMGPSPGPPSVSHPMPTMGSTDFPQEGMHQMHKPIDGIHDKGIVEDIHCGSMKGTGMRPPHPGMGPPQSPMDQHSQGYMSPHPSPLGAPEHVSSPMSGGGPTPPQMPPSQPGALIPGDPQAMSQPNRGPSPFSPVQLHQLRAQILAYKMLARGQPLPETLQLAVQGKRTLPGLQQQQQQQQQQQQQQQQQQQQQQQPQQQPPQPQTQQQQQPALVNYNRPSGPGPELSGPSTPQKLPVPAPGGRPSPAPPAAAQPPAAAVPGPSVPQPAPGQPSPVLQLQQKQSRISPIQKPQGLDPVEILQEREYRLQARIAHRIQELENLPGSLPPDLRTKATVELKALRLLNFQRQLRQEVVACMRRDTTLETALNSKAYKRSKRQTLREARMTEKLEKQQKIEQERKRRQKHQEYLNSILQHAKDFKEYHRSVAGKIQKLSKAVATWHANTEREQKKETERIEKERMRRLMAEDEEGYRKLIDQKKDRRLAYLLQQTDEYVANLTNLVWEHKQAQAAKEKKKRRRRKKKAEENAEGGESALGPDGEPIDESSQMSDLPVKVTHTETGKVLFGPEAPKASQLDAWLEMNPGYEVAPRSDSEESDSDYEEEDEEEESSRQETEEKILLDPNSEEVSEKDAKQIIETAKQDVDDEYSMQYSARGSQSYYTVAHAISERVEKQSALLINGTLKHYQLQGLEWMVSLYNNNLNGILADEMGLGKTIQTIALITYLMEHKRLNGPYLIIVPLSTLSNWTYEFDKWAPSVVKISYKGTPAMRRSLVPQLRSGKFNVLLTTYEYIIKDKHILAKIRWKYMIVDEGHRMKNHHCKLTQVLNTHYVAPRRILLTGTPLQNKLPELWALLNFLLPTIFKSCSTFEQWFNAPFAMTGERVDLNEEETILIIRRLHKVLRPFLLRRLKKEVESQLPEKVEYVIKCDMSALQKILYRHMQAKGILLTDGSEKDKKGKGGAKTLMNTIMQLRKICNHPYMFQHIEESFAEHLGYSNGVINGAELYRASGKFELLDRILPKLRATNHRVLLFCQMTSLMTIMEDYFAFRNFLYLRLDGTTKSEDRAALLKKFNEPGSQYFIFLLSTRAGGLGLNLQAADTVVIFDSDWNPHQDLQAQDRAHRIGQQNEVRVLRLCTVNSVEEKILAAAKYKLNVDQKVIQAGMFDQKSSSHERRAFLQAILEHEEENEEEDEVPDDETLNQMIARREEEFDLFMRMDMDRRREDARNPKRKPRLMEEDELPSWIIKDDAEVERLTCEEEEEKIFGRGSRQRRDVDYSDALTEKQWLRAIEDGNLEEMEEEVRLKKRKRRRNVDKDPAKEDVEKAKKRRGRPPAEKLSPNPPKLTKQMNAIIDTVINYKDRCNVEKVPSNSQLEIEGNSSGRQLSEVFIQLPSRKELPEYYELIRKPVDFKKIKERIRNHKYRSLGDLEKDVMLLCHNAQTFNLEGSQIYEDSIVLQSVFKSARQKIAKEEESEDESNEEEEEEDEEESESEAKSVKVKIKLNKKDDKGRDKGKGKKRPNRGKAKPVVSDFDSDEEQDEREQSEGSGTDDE

[8] = Luminescence Cell-Based Dose Retest to Confirm Inhibitors of Cancer Stem Cells. [Related pubchem assays (depositor defined):AID2717, AID2721]; assay type: functional; details: Homo sapiens
[9] = test system: INS1; experiment: beta cell apoptosis inhibitors, cytokine rescue, dose response, luminescence, retest (AID 449756); assay type: functional, cell-based; details: Rattus norvegicus;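 further: cell death triggered by IL-1 beta plus TNF-alpha plus IFN-gamma mixture; protective hits raise ATP signal compared with cytokine alone wells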
[10] = Counterscreen for activators of the function of SWI/SNF related, matrix associated, actin dependent regulator of chromatin, subfamily a, member 2 (SMARCA2, BRM): Luminescence-based cell-based high throughput dose response assay to identify non-selective compounds using the VP16 reporter assay.; assay type: functional
[11] = biological target: T1, Scavenger receptor class B member 1 (Mus musculus, UniProt Q61009); experiment: inhibitors of SR-BI-mediated HDL uptake, dose response, cell-based, ldlA[mSR-BI] CHO, DiI fluorescence, dry powder, set 10 (AID 624029); assay type: functional
T1 sequence (Q61009 whole entry): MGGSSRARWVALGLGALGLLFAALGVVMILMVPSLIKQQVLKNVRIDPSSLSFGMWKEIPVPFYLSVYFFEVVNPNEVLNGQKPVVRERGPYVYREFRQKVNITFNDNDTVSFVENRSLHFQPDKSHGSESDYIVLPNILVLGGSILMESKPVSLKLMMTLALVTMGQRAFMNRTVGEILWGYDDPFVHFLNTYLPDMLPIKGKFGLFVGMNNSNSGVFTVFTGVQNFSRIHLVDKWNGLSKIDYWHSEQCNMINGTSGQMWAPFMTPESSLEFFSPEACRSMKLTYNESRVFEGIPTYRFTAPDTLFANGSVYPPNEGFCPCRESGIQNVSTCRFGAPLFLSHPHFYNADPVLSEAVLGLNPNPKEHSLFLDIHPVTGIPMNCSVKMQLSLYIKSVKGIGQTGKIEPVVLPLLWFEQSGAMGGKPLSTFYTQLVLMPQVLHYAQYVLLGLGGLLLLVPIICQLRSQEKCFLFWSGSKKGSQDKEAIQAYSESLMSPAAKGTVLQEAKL

[12] = cytotoxicity in ldlA[mSR-BI] CHO cells, dose response, cytotoxicity control for SR-BI HDL uptake inhibitor project, cell-based, CellTiter-Glo, 24 h, powder samples, set 7 (AID 624026); assay type: functional
[13] = biological target: T1, Scavenger receptor class B member 1; experiment: inhibitors of SR-BI dependent HDL uptake, dose response, ldlA[mSR-BI] CHO cells, fluorescence plate reader, dry powder, set 9 (AID 623880); assay type: functional, cell-based
[14] = biological target: T2, Sentrin-specific protease 1 (Homo sapiens, UniProt Q9P0U3); experiment: potency of human SENP1 inhibitors, dose response, biochemical, kinetic FRET (AID 651697); assay type: functional; details: read-out: IC50_Mean
T2 sequence (Q9P0U3 whole entry): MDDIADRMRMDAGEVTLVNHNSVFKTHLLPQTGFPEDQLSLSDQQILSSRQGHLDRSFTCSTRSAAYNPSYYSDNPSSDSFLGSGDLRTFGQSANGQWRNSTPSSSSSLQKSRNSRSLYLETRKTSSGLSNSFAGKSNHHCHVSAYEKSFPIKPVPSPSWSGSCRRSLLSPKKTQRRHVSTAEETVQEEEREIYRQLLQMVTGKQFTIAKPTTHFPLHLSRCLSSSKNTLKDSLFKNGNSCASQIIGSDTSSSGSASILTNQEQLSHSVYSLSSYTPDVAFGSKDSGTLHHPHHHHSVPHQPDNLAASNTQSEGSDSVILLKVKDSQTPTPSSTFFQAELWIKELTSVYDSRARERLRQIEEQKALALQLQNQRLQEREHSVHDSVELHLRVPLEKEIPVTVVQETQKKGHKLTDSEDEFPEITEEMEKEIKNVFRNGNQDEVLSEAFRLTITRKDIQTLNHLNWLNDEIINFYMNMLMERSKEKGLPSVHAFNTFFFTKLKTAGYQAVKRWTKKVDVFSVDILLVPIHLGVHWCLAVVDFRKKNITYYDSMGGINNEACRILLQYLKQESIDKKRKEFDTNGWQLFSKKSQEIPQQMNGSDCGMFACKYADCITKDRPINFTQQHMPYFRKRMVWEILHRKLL

[15] = biological target: Large T antigen (Simian virus 40, UniProt P03070); assay type: functional, Betapolyomavirus macacae;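 further: Confirmatory-stage PubChem screen for compounds that inhibit SV40 T antigen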
Chain of Large T antigen (P03070 whole entry, the tested form may be a part): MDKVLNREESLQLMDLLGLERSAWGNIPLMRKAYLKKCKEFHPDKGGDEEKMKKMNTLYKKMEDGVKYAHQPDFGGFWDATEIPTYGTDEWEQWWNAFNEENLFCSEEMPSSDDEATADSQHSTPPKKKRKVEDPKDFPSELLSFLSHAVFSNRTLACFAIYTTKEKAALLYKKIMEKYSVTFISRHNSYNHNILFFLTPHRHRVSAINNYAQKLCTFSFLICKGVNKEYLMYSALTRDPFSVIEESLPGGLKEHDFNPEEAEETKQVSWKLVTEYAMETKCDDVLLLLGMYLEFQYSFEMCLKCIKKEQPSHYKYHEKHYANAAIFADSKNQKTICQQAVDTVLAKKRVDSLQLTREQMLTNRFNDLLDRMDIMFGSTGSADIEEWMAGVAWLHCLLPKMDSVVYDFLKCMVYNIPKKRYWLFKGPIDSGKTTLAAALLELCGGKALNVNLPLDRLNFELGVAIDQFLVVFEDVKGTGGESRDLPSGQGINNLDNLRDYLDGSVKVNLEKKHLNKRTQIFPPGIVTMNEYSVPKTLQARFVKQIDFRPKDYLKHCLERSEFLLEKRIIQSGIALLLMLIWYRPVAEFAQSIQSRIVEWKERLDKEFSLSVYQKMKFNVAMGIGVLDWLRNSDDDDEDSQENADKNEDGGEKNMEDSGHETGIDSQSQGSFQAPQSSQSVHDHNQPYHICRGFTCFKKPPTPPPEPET

[16] = biological target: T2, Sentrin-specific protease 1; experiment: Dose response confirmation of small molecule inhibitors of the catalytic domain of the SUMO protease, SENP1 in a FRET assay.; assay type: functional; details: read-out: IC50_Mean
[17] = cytotoxicity in HEK-293T cells, dose response, cytotoxicity control for TCR NF-kB inhibitor project, luminescence, T-cell screen hits (AID 489026); assay type: functional, cell-based;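 further: cells exposed to compound about 14 hours before the viability readout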
[18] = HEK293T cell cytotoxicity, dose response, cytotoxicity control for HIV Vif inhibitor project, cherry-picks (AID 652208); assay type: functional, cell-based
[19] = biological target: Protein S100-A4 (Homo sapiens, UniProt P26447); experiment: S100A4-myosin IIA binding inhibitor potency, dose response, biochemical, fluorescence polarization, cherry-picked hits (AID 687001); assay type: functional
Chain of Protein S100-A4 (P26447 whole entry): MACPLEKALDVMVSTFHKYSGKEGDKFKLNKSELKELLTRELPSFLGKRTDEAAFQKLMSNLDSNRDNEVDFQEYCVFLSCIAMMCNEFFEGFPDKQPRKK

[20] = biological target: Paired box protein Pax-8 (Homo sapiens, UniProt Q06710); experiment: inhibitors of PAX8-driven TPO luciferase reporter, dose response, RMG-I cells, cherry-pick (AID 687027); assay type: functional, cell-based;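 further: luciferase reporter driven by Pax8 target thyroperoxidase promoter measured by SteadyGlo luminescence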
Chain of Paired box protein Pax-8 (Q06710 whole entry): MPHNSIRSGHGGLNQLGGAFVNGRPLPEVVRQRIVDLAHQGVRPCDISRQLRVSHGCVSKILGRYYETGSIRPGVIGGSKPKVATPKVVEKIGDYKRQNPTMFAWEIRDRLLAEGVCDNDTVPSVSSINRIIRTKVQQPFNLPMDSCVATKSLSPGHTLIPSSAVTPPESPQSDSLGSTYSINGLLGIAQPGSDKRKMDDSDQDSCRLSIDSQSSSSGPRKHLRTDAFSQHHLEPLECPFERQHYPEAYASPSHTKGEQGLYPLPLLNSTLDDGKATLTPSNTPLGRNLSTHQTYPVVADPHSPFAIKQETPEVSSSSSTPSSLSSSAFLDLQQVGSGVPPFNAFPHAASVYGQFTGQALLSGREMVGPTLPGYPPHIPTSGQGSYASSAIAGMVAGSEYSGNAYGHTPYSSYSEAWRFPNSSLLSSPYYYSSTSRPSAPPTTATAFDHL

[21] = biological target: T3, Beta Lactamase (Pseudomonas aeruginosa, UniProt Q932Y6); experiment: VIM-2 inhibitor FRET-based artefact check, dose response, artefact control for selective VIM-2 inhibitor project, biochemical, FRET readout, CCF2 substrate (AID 1926)
T3 sequence (Q932Y6 whole entry): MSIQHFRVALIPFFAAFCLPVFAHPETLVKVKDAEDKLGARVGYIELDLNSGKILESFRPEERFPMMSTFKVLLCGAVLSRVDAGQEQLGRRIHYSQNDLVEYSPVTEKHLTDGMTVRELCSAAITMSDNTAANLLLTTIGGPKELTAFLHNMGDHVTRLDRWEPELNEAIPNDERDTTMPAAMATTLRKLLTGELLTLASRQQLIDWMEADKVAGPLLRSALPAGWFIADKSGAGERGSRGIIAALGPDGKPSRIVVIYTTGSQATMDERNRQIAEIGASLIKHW

[22] = biological target: T4, Beta-lactamase (Pseudomonas aeruginosa, UniProt Q79MP6); experiment: IMP-1 metallo-beta-lactamase inhibitors, dose response, selectivity assay for VIM-2 inhibitor project, biochemical, epi-absorbance (AID 1920)
T4 sequence (Q79MP6 whole entry): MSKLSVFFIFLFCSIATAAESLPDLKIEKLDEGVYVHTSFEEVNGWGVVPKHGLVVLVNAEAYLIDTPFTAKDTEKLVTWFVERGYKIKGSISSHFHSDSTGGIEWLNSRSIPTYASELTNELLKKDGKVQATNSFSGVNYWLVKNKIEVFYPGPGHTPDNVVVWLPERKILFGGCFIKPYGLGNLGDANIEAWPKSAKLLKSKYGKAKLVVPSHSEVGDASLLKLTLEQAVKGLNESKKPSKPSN

[23] = biological target: T3, Beta Lactamase; experiment: VIM-2 metallo-beta-lactamase inhibitor potency, dose response, biochemical, epi-absorbance readout, selective inhibitors (AID 1919)
[24] = biological target: Beta-lactamase (Salmonella choleraesuis (strain SC-B67), UniProt Q5J463); experiment: Epi-absorbance-based counterscreen for selective VIM-2 inhibitors: dose response biochemical high throughput screening assay to identify inhibitors of TEM-1 serine-beta-lactamase.
Chain of Beta-lactamase (Salmonella choleraesuis (strain SC-B67), UniProt Q5J463) (Q5J463 whole entry): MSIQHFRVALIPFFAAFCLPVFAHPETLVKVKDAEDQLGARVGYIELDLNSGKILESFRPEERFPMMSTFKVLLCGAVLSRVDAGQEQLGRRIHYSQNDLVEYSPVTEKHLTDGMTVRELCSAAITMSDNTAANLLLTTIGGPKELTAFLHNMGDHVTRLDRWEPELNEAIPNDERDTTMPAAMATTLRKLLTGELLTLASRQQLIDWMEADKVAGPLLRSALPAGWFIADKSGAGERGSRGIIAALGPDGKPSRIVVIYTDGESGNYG

[25] = biological target: T4, Beta-lactamase; experiment: […] counterscreen for selective VIM-2 inhibitors: dose response biochemical high throughput screening assay to identify inhibitors of IMP-1 metallo-beta-lactamase.

SMILES: O=C1C=C(c2cccs2)C[C@H](c2ccccc2)[C@H]1n1nnc([N+](=O)[O-])n1
- EC50 [1]: 9.02 µM (inconclusive)
- AC50 [2]: 7.95 µM (active)
- EC50 [3]: 5.51 µM (inconclusive)
- EC50 [4]: 3.85 µM (inconclusive)
- EC50 [5]: 0.242 µM (active)
- EC50 [6]: 10.3 µM (inconclusive)
- EC50 [7]: > 91.2 µM (inactive)
- AC50 [8]: 0.835 µM (active)
- AC50 [9]: 4.33 µM (active)
- EC50 [10]: > 91.2 µM (inactive)

SMILES: CC.CCCCCCC1CCC/C1=N\NC(N)=S (stereo unspecified)
- AC50 [11]: 0.005 µM (active)
- AC50 [12]: 2.08 µM (active)
- AC50 [13]: 0.00737 µM (active)

SMILES: COc1cc(SC#N)ccc1/N=C/c1c(C)[nH]n(-c2ccc(C)cc2C)c1=O
- IC50 [14]: 24.8 µM (inactive)
- IC50 [15]: 7.19 µM (active)
- IC50 [16]: 15 µM (active)

SMILES: CCCOCCOC(=O)c1[nH]c2c(c1C)C(=O)CC(c1cc(OC)ccc1OC)C2 (stereo unspecified)
- IC50 [17]: > 80 µM (inactive)
- AC50 [18]: > 52 µM (inactive)

SMILES: COc1cccc2c1C(=O)c1c(O)c3c(c(O)c1C2=O)CC(O)(C(=O)CO)CC3OC1CC(N(C)C)C(O)C(C)O1 (stereo unspecified)
- AC50 [19]: 0.257 µM (active)
- AC50 [20]: 0.833 µM (active)
- AC50 [2]: 0.296 µM (active)

SMILES: O=[N+]([O-])c1ccccc1/C=N/n1c(S)nnc1C(F)(F)F
- IC50 [21]: 3.12 µM (active)
- IC50 [22]: > 59.6 µM (inactive)
- IC50 [23]: 9.33 µM (active)
- IC50 [24]: > 59.6 µM (inactive)
- IC50 [25]: > 59.6 µM (inactive)
